Data reported in patent publication US20250064886A1, “CARDIOVASCULAR AND CEREBROVASCULAR DRUG AND USE THEREOF” (HANGZHOU ADAMERCK PHARMLABS INC., priority 2021, published 2025).
“And” between values parts separate entries of the source, which are not always exact repeats. Equal entries are not always repeated.

Tests used:
tryptase = experiment: Sensitization risk: tryptase expression (OD, BAPNA) in zebrafish (Example 2); format: in vivo
Procedure: Experimental method: 2 dpf wild type AB strain zebrafish were randomly selected and placed in a 24-well plate, with each group 6 parallel wells and 10 zebrafish per well. The zebrafish were injected intravenously with samples at a dose of 500 ng/tail and the positive control “C48/80” at a concentration of 1.5 μg/mL, while normal control group was set up. Each well has a capacity of 1 mL.
All experimental groups were given BAPNA by dissolving it in the water. After treatment at 28° C. for 1 day, the liquid was transferred to 96-well plates with 200 μL/well, and the relative absorbance values (OD values) of the expression levels of tryptase in each experimental group were detected using an microplate reader, and the results of the statistical analysis of the OD values were used to evaluate the risk of sensitization by sample. Statistical results were expressed as mean±SE.
Statistical analysis was performed using SPSS software, and p<0.05 indicates significant differences.

rats = experiment: Bleeding time in rats, tail clipping (Example 4); format: in vivo, rat
Procedure: Grouping: Divided into 5 groups, with 10 animals in each group. […] The modeling started 30 min after the last dose. Detection index: the blood flow was open after 15 min, the thread was taken out, the residual liquid was sucked dry, the thread attached with thrombus was weighed and the wet weight of thrombus was calculated; the dry weight of thrombus was weighed and calculated after bake-drying in the oven at 50° C. Thrombosis inhibition rate was calculated. Tails were clipped at the end of the experiment to detect bleeding time.

[1] = test system: rats with focal cerebral ischemia (MCAO)/reperfusion; experiment: Preventative administration, cerebral ischemia-reperfusion injury MCAO/R in rats (Example 5); format: in vivo, rat; settings: preventative; for Cerebral infarction rate (%): tail vein 3 days
Procedure: Experimental method: SD rats were randomly divided into six groups, i.e., pseudosurgery group, model control group, positive control drug ozagre (6 mg/kg) group, and administration drug compound (1) high-dose (67.5 mg/kg) group, medium-dose (22.5 mg/kg) group, and low-dose (7.5 mg/kg) group. The administration group was pre-administered via tail vein injection, while the pseudosurgery group and model control group were given equal volumes of physiological saline once a day for 3 consecutive days. 10 minutes after the last administration, a rat MCAO/R model was established and performed reperfusion 2 hours post ischemia. 24 hours after MCAO reperfusion, the neurobehavioral scores of rats were performed to determine their neurological function; the cerebral infarction rate and cerebral water content in rats were determined using 2,3,5-triphenyltetrazolium chloride (TTC) staining method.

[2] = test system: Erastin-induced neuronal cells; experiment: Cell viability (CCK8) of Erastin-induced neuronal cells (Example 8); format: cell-based, rat; settings: Erastin 50 μM
Procedure: (§1) Experimental method: Primary neuron cells were incubated in a medium containing Erastin (final concentration of 50 μM) for 24 hours, and then incubated in a medium containing different concentrations of the test drug and Erastin (final concentration of 50 μM) for another 24 hours. After incubation, Real time PCR was used to detect mRNA expression of GPX4 in each group of cells, CCK8 assay was used to detect cell viability in each group of cells, C11-BODIPY probe method was used to detect intracellular lipid ROS levels in each group of cells, and PGSK probe method was used to detect iron content in cells.
(§2) The experimental data were expressed in means±SD, and statistical differences between groups were determined using one-way ANOVA and Tukey's test, with p-values less than 0.05 considered significant.
After incubation, the CCK8 experiment was used to detect the cell viability of each group of cells. The results were presented as Mean±SD. Compared with control group, ***p<0.0001. Compared with model control group, ^#P<0.05, ^##P<0.01.

[3] = test system: lipid ROS levels in Erastin-induced nerve cells; experiment: Lipid ROS levels (C11-BODIPY probe) in Erastin-induced nerve cells (Example 8); format: cell-based, rat; settings: Erastin 50 μM
Procedure: as §1, §2
After incubation, the C11-BODIPY probe method was used to detect the lipid ROS levels in each group of cells. The results were presented as Mean±SD. Compared with the control group, ***p<0.0001; compared with the model group, #p<0.05, ##p<0.01.

[4] = test system: iron content in Erastin-induced neuronal cells; experiment: Iron content (PGSK probe) in Erastin-induced neuronal cells (Example 8); format: cell-based, rat; settings: Erastin 50 μM
Procedure: as §1, §2
After incubation, the PGSK probe method was used to detect the intracellular iron content. The results were presented as Mean±SD. Compared with the control group, ***p<0.0001; Compared with the model group, #p<0.05, ##p<0.01.

## CC(=O)N[C@H](CSCC1OC2OC3C(CSC[C@@H](NC(C)=O)C(=O)[O-])OC(OC4C(CSC[C@@H](NC(C)=O)C(=O)[O-])OC(OC5C(CSC[C@@H](NC(C)=O)C(=O)[O-])OC(OC6C(CSC[C@@H](NC(C)=O)C(=O)[O-])OC(OC7C(CSC[C@@H](NC(C)=O)C(=O)[O-])OC(OC8C(CSC[C@@H](NC(C)=O)C(=O)[O-])OC(OC9C(CSC[C@@H](NC(C)=O)C(=O)[O-])OC(OC1C(O)C2O)C(O)C9O)C(O)C8O)C(O)C7O)C(O)C6O)C(O)C5O)C(O)C4O)C(O)C3O)C(=O)[O-].[Na+].[Na+].[Na+].[Na+].[Na+].[Na+].[Na+].[Na+] (stereo partly drawn) [Compound (1)]
tryptase; 500 ng/tail
  Sensitization risk, in words: no or substantially no sensitization risk
tryptase; 500 ng/tail intravenous
  Relative sensitization risk (compared with positive control group): 13%
  Sensitization risk (%): 11.1%
tryptase; 500 ng/tail intravenous, 28° C. 1 day, single wells
  Absorbance value (OD value), parallel wells 1-6: 0.05725 and 0.05895 and 0.06195 and 0.06575 and 0.05845 and 0.05605
tryptase; 500 ng/tail intravenous, mean of 6 wells
  Absorbance value (OD value), mean: 0.060
rats; 10 mg/kg i.v., x ± s, n = 10
  Bleeding time: 403.4 ± 185.1 s
rats; 20 mg/kg i.v.
  Bleeding time: 422.6 ± 205.7 s
rats; 40 mg/kg i.v.
  Bleeding time: 428.4 ± 185.6 s
rats; intravenous, compared with model control group
  Effect on the bleeding time in rats, in words: no significant effect
[1]; 7.5 mg/kg (low-dose)
  Cerebral infarction rate (%): 15.18 ± 4.74 %
[1]; 7.5 mg/kg
  Behavioral score: 2.00 ± 1.07
  Cerebral water content (%): 80.16 ± 1.03%
[1]; 22.5 mg/kg (medium-dose)
  Cerebral infarction rate (%): 13.93 ± 6.99 %
[1]; 22.5 mg/kg
  Behavioral score: 1.87 ± 0.64
  Cerebral water content (%): 79.01 ± 1.27 %
[1]; 67.5 mg/kg (high-dose)
  Cerebral infarction rate (%): 12.28 ± 10.29 %
[1]; 67.5 mg/kg
  Behavioral score: 1.50 ± 0.53
  Cerebral water content (%): 78.23 ± 1.84 %
[2]; 1 μM, 24 h, control = 100, Mean±SD
  Cell viability (%): 57.01 ± 2.82^ %
[2]; 2.5 μM
  Cell viability (%): 61.77 ± 6.56^ %
[2]; 5 μM
  Cell viability (%): 65.4 ± 5.81%
[2]; 10 μM
  Cell viability (%): 76.62 ± 5.99^## %
[2]; 20 μM
  Cell viability (%): 80.62 ± 5.39^## %
[2]; 40 μM
  Cell viability (%): 83.43 ± 6.21^## %
[3]; 1 μM, control = 100, Mean±SD
  Lipid ROS levels (%): 150.18 ± 6.05^ %
[3]; 2.5 μM
  Lipid ROS levels (%): 142.58 ± 3.01^ %
[3]; 5 μM
  Lipid ROS levels (%): 137.9 ± 6.72%
[3]; 10 μM
  Lipid ROS levels (%): 132.33 ± 6.57^## %
[3]; 20 μM
  Lipid ROS levels (%): 121.82 ± 5.9^## %
[3]; 40 μM
  Lipid ROS levels (%): 114.13 ± 8.82^## %
[4]; 1 μM, control = 100, PGSK fluorescence, weaker = more iron
  Iron content (PGSK probe): 61.06 ± 7.12
[4]; 2.5 μM
  Iron content (PGSK probe): 66.81 ± 7.21
[4]; 5 μM
  Iron content (PGSK probe): 71.85 ± 4.47
[4]; 10 μM
  Iron content (PGSK probe): 77.52 ± 12.88^#
[4]; 20 μM
  Iron content (PGSK probe): 82.16 ± 6.86^##
[4]; 40 μM
  Iron content (PGSK probe): 86.69 ± 8.01^##
